According to patent US20090156477A1, “Compositions and Methods for Regulating Inflammatory Responses” (Massachusetts Institute of Technology, priority 2005, published 2009):

Experiments:
Caco-2 cells = assay: Transepithelial resistance (TER) of Caco-2 monolayers; type: cell-based, human; conditions: for inhibited TER increases: 100 ng/ml ligand, three days (72 hours) after addition, percent reduction in TER compared to PBS treated cells; for time after treatment at which reductions in TER were evident: Caco-2 monolayers, TER followed over 48 hours; for reduced resistance on day 5: ligand added on day 0 and day 2, compared to untreated cells
Protocol: Caco-2 cells were grown close to confluence, and T84 cells were grown to confluence. The apical chambers of transwell plates with 6.5 mm diameter and 3 μm pore size filters were pretreated with 50 μl of 45 μg/ml collagen IV in 60% ethanol 24 hours prior to plating and incubated overnight at room temperature. After reaching confluence, cells were washed with 20 ml PBS and treated with 3.5 ml trypsin-EDTA per 175 cm^2 flask for 20-60 min at 37° C. until cells detached. Cells were resuspended in 16.5 ml media appropriate to the cell type. Each apical chamber was supplemented with 82 μl cell solution. The basolateral chamber was filled with 1 ml propagation media. Filters were fed with new media every two days over the course of experiments.
Caco-2 and T84 cells were allowed to grow on transwells to form monolayers. Monolayer formation was examined every other day by light microscopy as well as by transepithelial resistance (TER) measurements using an EVOM ohmmeter (World Precision Instruments, Sarasota, Fla.). After monolayer formation, cells were treated with 100 ng/ml FGF1, 100 ng/ml FGF2, 100 ng/ml FGF7 or an equivalent volume (10 μl) of PBS. TER measurements were made either after 72 hours or at each of the 30 minutes, 1 hour, 2 hours, 4 hours, 9 hours, 24 hours and 48 hours timepoints. To determine the effects of multiple additions of ligand, FGFs or PBS were added initially and again after 2 days, and TER measurements were made after 0, 2 and 5 days.
To probe the mechanism by which various FGFs induced cell mediated effects, various media treatments were employed. Ammonium tetrathiomolybdate (TM) was added 24 hours prior to the addition of ligands to yield a final concentration of 200 μM, sufficient to prevent the release of FGF1 [3]. Similarly, sodium chlorate, which reduces cell HSPGs and the sulfation of associated HSGAGs, was added 24 hours prior to the addition of ligands to yield a final concentration of 50 mM [33,34]. Antibodies and kinase inhibitors were added immediately prior to ligands. Antibodies to FGF1, FGFR1 and FGFR3 were added at a 1:100 dilution. Kinase inhibitors were added to yield final concentrations of 50 μM LY294002, 20 μM PD98059, 1 μM SB203580. All experiments were performed in triplicate.
Caco-2 cells were grown to just prior to confluency. The apical chambers of transwell plates with 6.5 mm diameter and 3 μm pore size filters were pretreated with 50 μl of 45 μg/ml mouse recombinant collagen IV (BD Biosciences, Bedford, Mass.) in 60% ethanol 24 hours prior to plating. Plates were incubated overnight at room temperature. Just prior to confluency, cells were washed with 20 ml phosphate buffered saline (PBS) and treated with 3.5 ml trypsin-EDTA per 175 cm^2 flask for 20-60 min at 37° C., until cells detached. Cells were resuspended in 16.5 ml media appropriate to the cell type. Each apical chamber was supplemented with 82 μl cell solution. The basolateral chamber was filled with 1 ml propagation media. Filters were fed with new media every two days over the course of experiments.
Caco-2 cells were allowed to grow on transwells to form monolayers. Monolayer formation was examined every other day by light microscopy as well as by TER measurements using an EVOM ohmmeter (World Precision Instruments, Sarasota, Fla.). After monolayer formation, cells were treated with 100 ng/ml recombinant human FGF1 (Amgen, Thousand Oaks, Calif.), 100 ng/ml recombinant human FGF2 [1], 100 ng/ml recombinant human FGF7 (Sigma, St. Louis, Mo.), or an equivalent volume (10 μl) of PBS. TER measurements were made after each of 30 minutes, 1 hour, 2 hours, 4 hours, 9 hours, 24 hours and 48 hours.
To probe the mechanism by which various FGFs induced cellular mediated effects, various media treatments were employed. TM was added 24 hours prior to the addition of ligands to yield a final concentration of 200 μM, sufficient to prevent the release of FGF1 [3]. […]

T84 cells = assay: T84 proliferation assay (whole cell number); type: cell-based, human; conditions: for increased whole cell number: 100 ng/ml ligand, three days, vs PBS control
Protocol: Caco-2 cells were grown to just prior to confluence, and T84 cells were grown to confluence. Each flask was washed with 20 ml PBS and treated with 3 ml trypsin-EDTA at 37° C. for 20-60 minutes until cells detached. Cells were centrifuged for 3 minutes at 195×g. The supernatant was aspirated, and the cells were resuspended in 10 ml media. The cell density was measured using an electronic cell counter, and the suspension was diluted to 50,000 cells/ml. The suspension was plated at 1 ml/well into 12-well tissue culture plates. After a 24 hour incubation in a 5% CO2, 37° C. humidified incubator, the media was aspirated, the wells were washed with serum free media, and the cells were supplemented with media containing 0.1% FBS. The wells were then supplemented with 10 μl PBS, 50 mM sodium chlorate, or 200 μM TM, and incubated for 24 hours. Subsequently, cells were supplemented with 100 ng/ml FGF1, FGF2, FGF7, or 10 μl PBS, and incubated for 72 hours. Wells were then washed twice with PBS and treated with 0.5 ml trypsin-EDTA/well and incubated at 37° C. until cells detached. Whole cell number was determined using an electronic cell counter. Data was averaged over three experiments, each consisting of four wells per condition.

With FGF1: Recombinant human FGF1 from Amgen the “inhibited TER increases” value (Caco-2 cells; Caco-2 cells) was 35.1±12.3%, the “reduced TER at 48 hours” value (Caco-2 cells; Caco-2 cells, 100 ng/ml, 48 hours) was 45.1±5.2% and the “effect of added agent on FGF-induced reduction in TER” value (Caco-2 cells; Caco-2 cells, agent given before or with 100 ng/ml FGFs (TM 200 μM, sodium chlorate 50 mM, LY294002 50 μM, PMA 100 ng/ml, antibodies 1:100)) was “restored the ability of FGF2 and FGF7 to reduce TER”. The “reduction of TER in TM treated cells” value (Caco-2 cells; Caco-2 monolayers pretreated with 200 μM TM, all time points beginning at 4 hours) was “still elicited significant reductions in TER”, the “reduction of TER with the addition of heparin” value (Caco-2 cells; Caco-2 monolayers pretreated with 50 mM sodium chlorate, heparin 500 ng/ml with ligands, vs PBS) was “reduced TER compared to PBS” and the “time after treatment at which reductions in TER were evident” value (“time after treatment at which reductions” for short) (Caco-2 cells; 100 ng/ml) was 2 h. For the same molecule, the “effect of added agent on proliferative effect of FGF2 and FGF7” value (T84 cells; TM 200 μM, FGF1 added to TM treated cells) was “restored the proliferative capacity of these ligands” and the “proliferation (in words)” value (T84 cells; over three days) was “did not induce the proliferation”.

“FGF2: Recombinant human FGF2, produced as described” was tested, and the “inhibited TER increases” value (Caco-2 cells; Caco-2 cells) was 67.2±25.8%, the “reduced resistance on day 5” value (Caco-2 cells; Caco-2 cells) was 43.6±11.1% and the “time after treatment at which reductions” value (Caco-2 cells; 100 ng/ml) was 4 h. The “increased whole cell number” value (T84 cells) was 24.8±8.8%.

B1: FGF7: Recombinant human FGF7 from Sigma (protein, UniProt P21781 32-194, looked up)
Fibroblast growth factor 7: CNDMTPEQMATNVNCSSPERHTRSYDYMEGGDIRVRRLFCRTQWYLRIDKRGKVKGTQEMKNNYNIMEIRTVAVGIVAIKGVESEFYLAMNKEGKLYAKKECNEDCNFKELILENHYNTYASAKWTHNGGEMFVALNQKGIPVRGKKTKKEQKTAHFLPMAIT
B1 was tested, and the “inhibited TER increases” value (Caco-2 cells; Caco-2 cells) was 61.4±17.3%, the “reduced resistance on day 5” value (Caco-2 cells; Caco-2 cells) was 44.4±8.7% and the “time after treatment at which reductions” value (Caco-2 cells; 100 ng/ml) was 4 h. The “increased whole cell number” value (T84 cells) was 11.4±3.8%.
